Data as given in patent publication US20240109914A1, “IMIDAZOTHIAZOLE COMPOUNDS AND ANALOGS THEREOF AND METHODS FOR TREATING NEMATODE INFECTIONS IN PLANTS” (The Governing Council of The University of Toronto, priority 2021, published 2024).
Like-named read-outs stand apart in the source and are kept apart here.

How the values were obtained:
[1] = test system: tomato plants; experiment: Root mass of tomato plants in the soil infectivity assay; details: 45 μM in soil, 8 weeks
Experimental: For the infectivity assays, 90 grams of soil (1:1 sand:loam mix) was added to each cell of several 6-cell plastic garden packs. The soil was drenched with 18 mL of deionized water containing dissolved test compound or DMSO alone. 2,500 infective J2 juveniles were then added to the soil in 2 mL of deionized water, for a total water volume of 20 mL. […] The DMSO concentration varied from 0.1% to 0.8% (v/v) depending on the stock concentration of the test compound. The highest DMSO concentration was used as the DMSO control. The J2s were incubated in the soil and chemical for 24 hours, after which two- to three-week old tomato seedlings were transplanted into the soil (one plant per cell). Two replicates were performed for each chemical treatment, and four replicates were done for the DMSO controls. The whole experiment was replicated twice, in two different batches on two different days, for a total of four replicates for each test compound treatment, and eight replicates for the DMSO controls. Inoculated plants were grown for 8 weeks in a greenhouse, as described^47, under long-day conditions (16-h photoperiod) with 26/18° C. day/night temperatures. After 8 weeks, the plants were destructively harvested. The tops were removed and discarded, and roots were gently washed with water to remove adhering soil. Eggs were extracted by placing rinsed roots in 0.6% sodium hypochlorite and agitating at 300 rpm for 3 min. Roots were then rinsed over nested 250—and 25.4-μm sieves, with eggs collected from the latter and suspended in water. Roots were dried in a 65° C. oven for at least 24 hours, after which dry roots were weighed. The number of eggs from each plant root was counted on a dissection microscope using a haemocytometer, and the number of eggs per milligram of root was calculated by dividing the total egg number by the mass of the dried root material. An average was taken across the replicates performed on the same day, and then normalized to the DMSO control average. […] An average percent effectiveness value was then calculated across the two different batches carried out on different days.

[2] = Zebrafish dose-response experiments; type: in vivo, Danio rerio; details: TLAB (wild-type), zebrafish (Danio rerio), in vivo; bound inferred from the tested concentrations, 3 days exposure
Experimental: (§1) Zebrafish were maintained and handled under the guidance and approval of the Canadian Council on Animal Care and the Hospital for Sick Children Laboratory Animal Services. Dose-response assays were performed using zebrafish (Danio rerio) at 3 days post-fertilization. Three wild-type (TLAB) embryos were analyzed in each well of a 24-well plate containing 1 mL of E3 medium (5 mM NaCl, 0.17 mM KCl, 0.33 mM CaCl2, 0.33 mM MgSO4). Test compounds were added to each well to reach final concentrations of 45 μM, 15 μM, and 5 μM (0.5% v/v DMSO), as well as a DMSO control well. The viability of the fish was assessed after 3 days of test compound exposure using a Zeiss standard dissection microscope.

[3] = test system: Zebrafish; experiment: Zebrafish dose-response experiments; type: in vivo, Danio rerio; details: for Zebrafish LC100: lowest concentration at which all of the fish are dead, 45, 15, 5 μM tested
Experimental: as §1

[4] = test system: M. chitwoodi J2 larvae; experiment: Meloidogyne chitwoodi in vitro larval mobility assay; type: in vivo; details: 2 days, average of three replicates; for pest or weed control at 45 µM: Meloidogyne chitwoodi, 48 h, read-out: % Immobile
Experimental: M. chitwoodi race 1 (the strain commonly found in the pacific northwest of the United States) was used for all experiments, and was maintained on tomato plants (Solanum lycopersicum ‘Rutgers’) as previously described^47. The microwell dose-response experiments were carried out similarly to previously described protocols^44,46. […] The chemicals were tested at 45 μM, and the final concentration of DMSO in each well was 0.5% (v/v). The wells were covered with a plastic adhesive strip, and the lids of the plates were sealed with parafilm. The plates were incubated at 25° C. for 2 days. The percent of worms that were immobile (% immobile) was quantified by counting the number of immobile worms after 2 days of incubation, dividing the number of immobile worms by the total number of worms in the well, and then multiplying by 100. […] The average % immobile value was calculated across the three replicates.

[5] = test system: M. incognita; experiment: Meloidogyne incognita infectivity assay (soil, tomato roots); type: in vivo; details: 45 μM in soil, 8 weeks, eggs per mg root relative to DMSO control; for pest or weed control at 45 µM: Meloidogyne incognita, 1344 h, read-out: % effectiveness at inhibiting reproduction of M. incognita
From the text: An M. incognita population originally collected from grape (Vitis vinifera) in Parlier, California, was used for all experiments, and they were maintained on tomato plants (Solanum lycopersicum ‘Rutgers’) as previously described^47. Infective J2 juveniles were collected as described in ref. 47.

[6] = test system: HepG2 cells; experiment: HepG2 cell proliferation assay; type: cell-based, human
Experimental: HepG2 cells, which are liver-derived, were counted using a haemocytometer, diluted, and seeded in […] to a final density of 5×10^4 cells/mL in 100 uL of RPMI-1640 medium supplemented with 10% heat inactivated fetal bovine serum (Gibco) and 1.2× Antibiotic-Antimycotic (Gibco). Cells were incubated at 37° C. with 5% CO2 for 24 hours. Subsequently, a 2-fold dilution series of test compound was added to cells at a final volume of 200 uL and incubated at 37° C. with 5% CO2 for 72 hours. After 72 hours, Alamar Blue (Invitrogen) was added to the Hep G2 cells at a final concentration of 0.5× and plates were incubated at 37° C. for 4 hours. Fluorescence was measured at Ex560 nm/Em590 nm and corrected for background from the medium. All assays were performed in technical triplicates and in at least two biological replicates. The IC50 value was defined as the concentration that inhibits cell proliferation by 50% of the untreated control cells.

[7] = test system: M. incognita J2 larvae; experiment: Meloidogyne incognita in vitro larval mobility assay; type: in vivo; details: 45 μM, 4 days; for Replicate 1 z-score / Replicate 2 z-score: z-score vs untreated DMSO wells; for pest or weed control at 45 µM: Meloidogyne incognita, 96 h
In short: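 Infective J2 juveniles of M. incognita Race 1, about 35 per well, were exposed to compound at 45 μM in deionized water with 0.5% DMSO for 4 days at 25° C without shaking. Immobile worms were counted as % of total, averaged over two replicates. A z-score against DMSO control wells was also computed, with z > 1.645 in both replicates marking a hit.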

[8] = test system: C. elegans; experiment: C. elegans dose-response (viability, minimum lethal concentration); type: in vivo, Caenorhabditis elegans
In short: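 About 25 synchronized L1 worms per well in liquid NGM with HB101 E. coli, compound added immediately (final DMSO 1% v/v), 3 days at 20° C., then viable animals counted. Viability relative to DMSO control, averaged over ≥3 biological replicates; minimum lethal concentration = lowest concentration killing ≥20% of worms.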

[9] = test system: M. hapla eggs; experiment: Meloidogyne hapla in vitro egg hatch assay; type: in vivo; details: 45 μM; for Number of Hatched Eggs: 8 days at room temperature, about 90 eggs per well, tested once; for Number of Hatched Eggs z-score: 8 days, z-score vs 8 untreated DMSO wells
In short: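 About 90 eggs per well, freed from carrot-root egg masses with 10% bleach for 4 min, were exposed in deionized water to 0.5 μL compound or DMSO. Hatched eggs were counted after 8 days at room temperature without shaking in humid conditions. Each treatment was tested once, with z-scores calculated from 8 untreated DMSO control wells.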

[10] = test system: M. chitwoodi; experiment: Meloidogyne chitwoodi infectivity assay (soil, tomato roots); type: in vivo; details: 45 μM in soil, 8 weeks, egg counts relative to DMSO control
Experimental: M. chitwoodi race 1 (the strain commonly found in the pacific northwest of the United States) was used for all experiments, and was maintained on tomato plants (Solanum lycopersicum ‘Rutgers’) as previously described^47. The M. chitwoodi infectivity assays were performed identically to the M. incognita infectivity assays (see above), with the exception that egg counts were not normalized to the mass of the roots. Four technical replicates were performed in a single batch.

[11] = average of the two replicates, read-out: Average % Immobile
[12] = replicate 1, read-out: Replicate 1 % Immobile
[13] = replicate 2, read-out: Replicate 2 % Immobile
[14] = Caenorhabditis elegans, 72 h, L1 worms, 3 days at 20° C., lowest concentration at which at least 20% of worms die, read-out: Minimum Lethal Concentration
[15] = Caenorhabditis elegans, 72 h, L1 worms, 3 days at 20° C., same values in ppm, read-out: Minimum Lethal Concentration (ppm)
[16] = 72 hours, Alamar Blue, cell proliferation

| SMILES | Normalized root mass (relative to DMSO control) [1] | Zebrafish LC100 ([3]; 3 days exposure) [µM] | pest or weed control at 45 µM [4] [%] | pest or weed control at 45 µM [5] [%] | Replicate 1 z-score ([7]; replicate 1) | Replicate 2 z-score ([7]; replicate 2) | pest or weed control at 45 µM [7, 11] [%] | pest or weed control at 45 µM [7, 12] [%] | pest or weed control at 45 µM [7, 13] [%] | minimal effective concentration [8, 14] [µM] | minimal effective concentration [8, 15] [µg/mL] | Number of Hatched Eggs [9] | Number of Hatched Eggs z-score [9] | % effectiveness at inhibiting reproduction of M. chitwoodi [10] [%] | other results |
| --- | --- | --- | --- | --- | --- | --- | --- | --- | --- | --- | --- | --- | --- | --- | --- |
| Clc1ccc(-c2cn3ccsc3n2)nc1 [I-46] | 1.56 | >45 | 56.4 | 37.7 | [10.33] | [12.18] | ≥ 75 | 73.2 | 77.1 | 100 | 23.6 |  |  |  | LC50 at 3 days [2]: > 45 µM; lethality to zebrafish ([3]; concentrations up to 45 μM, the highest concentration tested): non-lethal; IC50 ([6]; Homo sapiens, HepG2, 72 hours, Alamar Blue, cell proliferation): > 100 µM; HepG2 IC50 (ppm) ([6]; approximate ppm equivalent of 100 μM): > 23 ppm |
| CCc1ccc(-c2cn3ccsc3n2)cc1 [I-7] |  |  | > 75 |  | [10.58] | [3.55] | 51.9 | 74.5 | 29.4 | 50 | 11.4 | 1 | [4.30] | 59.3 |  |
| CCc1ccc(-c2cn3cc(C)sc3n2)cc1 [I-10] | 1.30 |  |  | 18.5 |  |  |  |  |  | 6.25 | 1.5 |  |  | 63.7 |  |
| c1ccc(-c2noc(-c3cccs3)n2)cc1 [tioxazafen, reference compound] | 1.09 | 15 |  |  | [14.82] | [21.99] |  |  |  |  |  | 1 | [4.30] |  | LC50 ([3]; bound inferred from the tested concentrations, 3 days exposure): ≤ 15 µM; times more potent at killing fish than compound I-46 ([3]; tioxazafen versus compound I-46, zebrafish): at least 3; % Immobile ([4]; 45 μM): 42.7%; % effectiveness at inhibiting reproduction of M. incognita [5]: 43.7%; HepG2 IC50 [6, 16]: relatively inactive; IC50 [6, 16]: > 100 µM; Average % Immobile ([7]; average of the two replicates): 100.00%; Replicate 1 % Immobile ([7]; replicate 1): 100.00%; Replicate 2 % Immobile ([7]; replicate 2): 100.00%; minimal effective concentration ([8]; L1 worms, 3 days at 20° C., lowest concentration at which at least 20% of worms die, read-out: Minimum Lethal Concentration): 3.125 µM; Minimum Lethal Concentration (ppm) ([8]; L1 worms, 3 days at 20° C., same values in ppm): 0.7 ppm; times more potent at killing C. elegans than compound I-46 ([8]; tioxazafen versus compound I-46, minimum lethal concentration): 32 |
